The values below are quoted from earlier work in US20170151272A1, “A NOVEL PHARMACEUTICAL COMPOSITION OF […] RIBAVIRIN” (SANOVEL ILAC SANAYI VE TICARET ANONIM SIRKETI, priority 2014, published 2017).

The subject of the data set is chronic hepatitis C (CHC) infections. The following applies: ribavirin alone.

Take “1-β-Dribofuranosyl-1H-1,2,4-triazole-3-carboxamide [Ribavirin]”: the sustained virologic response entry is given as “did not produce any sustained virologic response”. The “HCV RNA levels” value (during or after therapy) is reported as “did not reduce”. For the same substance, where the note is “during the course of treatment, some patients with CHC”, the “alanine aminotransferase (ALT) levels” value was “normalize W201 alanine aminotransferase (ALT) levels transiently”.
